These results are taken from US20240165135A1, “COMPOSITIONS AND METHODS FOR THE TREATMENT OF CANCER” (The State of Israel, Ministry of Agriculture & Rural …, priority 2021, published 2024).

SMILES strings stand for the structures. Marks after values point to notes of the source that are not given here.

Holding throughout (assay type): cell-based, Human
For assay [1], the system named is A172 cells. Nature of the assay: Transwell assay, A172 cell invasion. The following applies: 24 hours; F4 12 μg/mL, F5 10 μg/mL, Doxo 0.5 μg/mL. Here is the method:
Transwell assay—Cells were seeded in the upper chamber of a 24-well plate containing insert with an 8-μm pore size membrane (BD, Falcon Cat #353097), at a density of 5×10^4 in 250 μL complete medium and were incubated at 37° C. for 60 minutes to recover. Following, cells were treated and incubated for 24 hours followed by viability test with resazurin (AR002, R&D Systems, USA). The inserts were taken out of the medium, the inner part was wiped using a cotton swab to remove the detached cells. The inserts were transferred into a new 24-well plate, fixated using 70% ethanol for 10 minutes and dried for 50 minutes, followed by staining in 400 μL of 0.2% crystal violet, washing with PBS, and drying for 5 minutes. Cells stained underneath the membrane were counted in inverted microscope in 3-5 different fields.

For a further assay, the system named is U87 cells. Nature of the assay: 3D models (hydrogel) of U87 cells: colonies and Alamar Blue viability. The note with it: U87 from 3D structures, 48 hours; Doxorubicin 2, F4 20, F4-SM 12.5, F5 16.5, F5-SM 10 μg/ml; control 98.52. On the procedure:
3D models—Hydrogels (AGFCH) included Sigma-Aldrich products and were prepared using alginate (W201502; Sigma-Aldrich, USA) 22.5 mg/mL, gelatin (G9764; Bio-Basic, USA) 45 mg/mL, fibrinogen (F38791; Sigma-Aldrich, USA) 50 mg/mL, collagen (C9791; Sigma-Aldrich, USA) 2.2 mg/mL and hyaluronic acid (O8185; Sigma-Aldrich, USA) 2 mg/mL in PBS-glycerol solvent. The gel (AGFCH) was mixed with U87 cells at a concentration of 2×10^6 cells per 400 μL gel. The solutions were mixed gently and transferred as 25 μL of gel solution to a 24-well plate. 3D models were cross-linked using CaCl2 (A610050; Bio-Basic, USA) and thrombin (SRP6557; Sigma-Aldrich, USA) for 5 minutes, following the 3D structure was washed with PBS and then immersed in 1 mL of EMEM complete medium. Cells in the 3D structures were allowed to grow for 2 days and then the indicated treatments were administered for 8 days (treatments were repeated every 2 days). Structures were stained using EasyProbe Hoechst, as described above. To assess cell viability, the 3D structure was digested using 200 μL of 0.05M sodium citrate (C3434; Sigma-Aldrich, USA) and 0.05M EDTA (03-052-1A; Biological Industries, Israel) solution for 5 minutes. […] Percentage of colony in the different treatments was calculated out of average number of colonies in the control.
(In general: The colour change of resazurin is a common sign of viable cells or microbes.)

Assay [2] deals with A172 cells. Nature of the assay: Apoptosis assay, Annexin V-FITC and PI, FACS, A172. The note with it: 48 hours, F4-SM 10 μg/mL, F5-SM 10 μg/mL, Doxo 0.5 μg/mL. Here is the method:
Apoptosis assay—Apoptosis for the A172 cell line was assessed using MEBCYTO Apoptosis Kit with Annexin V-FITC and PI (MBL, Enco, 4700). Staining was carried out according to manufacturer's instructions. In brief, cells were seeded in a 6-well TC plate, at a density of 4×10^5 cells in 2 mL of SFM per well. 24 hours following seeding, cells were treated with the indicated treatments in complete medium for 48 hours. Following incubation, cells were harvested using trypsin and centrifuged for 5 minutes at 1600 rpm. Cell pellets were resuspended and washed twice with 1 mL of PBS. The cells in each sample were resuspended in 85 μL of Annexin binding buffer. Cells were stained using 10 μL of Annexin V-FITC solution and 5 μL of propidium iodide (PI) working solution followed by incubation in the dark at room temperature for 15 minutes. Then 400 μL of Annexin V binding buffer was added to each tube and flow cytometry was performed using a Gallios flow cytometer (FACS). Cells were considered apoptotic if they were Annexin V+/PI− (early apoptosis) or Annexin V+/PI+ (late apoptosis). Live cells were defined as Annexin V−/PI−, and Annexin V−/PI+ as necrosis.

With `COc1cccc2c1C(=O)c1c(O)c3c(c(O)c1C2=O)C[C@@](O)(C(=O)CO)C[C@@H]3O[C@H]1C[C@H](N)[C@H](O)[C@H](C)O1` [Doxorubicin], the “reduction of cell invasion relative to vehicle control” value with A172 cells [1] was 22.5%. Also, the “Mean (% of Live cells)” value in the assay with U87 cells was 37.22 ± 3.08^c %. The compound also displayed a necrotic cells in the assay with A172 cells [2] (methanol control 3.4%) of 23.8%. Moreover, the cell apoptosis in the assay with A172 cells [2] (vehicle control 8.0%) is 60.6%.
